Measured values: PMC11915372, “Identification of a Series Containing a Pentafluorophenyl Moiety That Targets Pks13 to Inhibit Growth of Mycobacterium tuberculosis” (ACS Infectious Diseases, 2025)
Read-outs that look alike come from different tables or passages of the source.

Tests used:
physchem = type: physicochemical
[1] = test system: MmpL3, DprE1, InhA, FadD32, Kas A hypomorph strains; type: cell-based, Mycobacterium tuberculosis
[2] = type: in vitro ADME, mouse; conditions: for Mouse micro Cl: intrinsic clearance (Cli), CD1 mouse liver microsomes, Tables 1-4; for Microsomal Cli: supplement data table
[3] = type: in vitro ADME, human
Method: Non-Chemistry supplementary methods
Test compound (10 µM) was incubated with 0.5 mg/mL Human Liver Microsomes (Mixed Gender, Life Technologies) in 50 mM potassium phosphate buffer, pH7.4 in the presence of either NADPH (8mg/mL), glutathione or NADPH plus glutathione. Reactions are started by addition of 5 µL of 1 mM test compound (final concentration 10 µM, 1% solvent). Immediately, an aliquot (100 µL) of the incubation mixture was removed and mixed with acetonitrile (200 µL) to stop the reaction. A further 100 uL aliquot is removed at 90 minutes. After addition of 100 µL of water, the samples were centrifuged to sediment precipitated protein and the plates then sealed prior to analysis using a Xevo QTof Quadrupole Time-of-Flight Mass Spectrometer (Waters corporation, USA). Detection of metabolites is performed by analysis with MetabolynxXS and by manual data searching. Elemental composition of the parent ion and MS/MS analysis is used to determine the nature of the GSH adduct.
Incubations with Clozapine were performed to provide a positive control.
Met ID in human liver microsomes […]
Analysis was performed on a Waters Acquity H-Class UHPLC system equipped with a photodiode array detector and Waters Xevo Q-ToF high resolution mass spectrometer. […] After the UV detector the mobile phase flow was analysed using the QToF mass spectrometer. […]

M. tuberculosis (H37Rv) = assay: microbe, parasite or virus in culture; type: cell-based, Mycobacterium tuberculosis
Pks13 hypomorph strain = type: cell-based, Mycobacterium tuberculosis
[4] = type: in vitro ADME, mouse; conditions: for Mouse Heps Cl: intrinsic clearance (Cli), mouse hepatocytes, Tables 1-4; for Hepatocyte Cli: supplement data table
[5] = test system: iniBAC promoter (PiniB-LUX strain); type: cell-based, Mycobacterium tuberculosis
HepG2 cells = assay: HepG2 cytotoxicity
Description: Assays to establish HepG2 cytotoxicity, in vitro microsomal/hepatocyte metabolic stability, aqueous kinetic solubility, and in vivo pharmacokinetic profiles were all performed as previously described.[15],[35]−[37]

[6] = pH 7.4
[7] = kinetic solubility in water, read-out: Kin. Sol

## CN(C)c1ncnc2sc(-c3c(F)c(F)c(F)c(F)c3F)nc12.Cl [Compound 1, CN(C)c1ncnc2sc(nc12)-c1c(c(c(c(c1F)F)F)F)F]
physchem; [7]
  solubility kinetic: 1.9 µM
physchem; pH 7.4, aqueous buffer, kinetic from dmso stock, pH7.4, read-out: Kinetic Solubility pH7.4
  solubility kinetic: 1.9 µM
[1]
  change in potency on partial depletion of InhA, FadD32 or Kas A: did not increase in potency
  inhibition of MmpL3 or DprE1 suggested by hypomorph strains: not inhibiting MmpL3 or DprE1
[2]
  Mouse micro Cl: >50 mLmin/g
  Microsomal Cli: >50 mL/min/g
[3]
  formation of the GSH adduct: clear evidence of a significant peak corresponding to the formation of the GSH adduct
M. tuberculosis (H37Rv); Mycobacterium tuberculosis, H37RV, read-out: H37Rv MIC A
  MIC: 0.12 µM
M. tuberculosis (H37Rv); Mycobacterium tuberculosis, H37RV, read-out: H37Rv MIC B
  MIC: 0.61 µM
M. tuberculosis (H37Rv); Mycobacterium tuberculosis, H37RV, read-out: Wk2_7H9/DPPC/ casitone/ Tyloxapol MIC
  MIC: 0.124 µM
M. tuberculosis (H37Rv); Mycobacterium tuberculosis, H37RV, read-out: Wk2_ 7H9/DPPC/ cholesterol/BSA/ Tyloxapol MIC
  MIC: 0.6 µM
M. tuberculosis (H37Rv); Mycobacterium tuberculosis, H37RV, read-out: Wk2_7H9/glucose/ BSA/Tyloxapol MIC
  MIC: 0.5 µM
M. tuberculosis (H37Rv); Mycobacterium tuberculosis, H37RV, read-out: Wk2_7H9/glucose/ casitone/ Tyloxapol MIC
  MIC: 0.1 µM
Pks13 hypomorph strain
  shift in IC50 between the ± atc conditions: ~10 fold
[4]
  Mouse Heps Cl: >50 mLmin/g
  Hepatocyte Cli: >50 mL/min/g
[5]
  PiniB-LUX luminescent signal: strong luminescent signal
HepG2 cells; Homo sapiens, HepG2, read-out: HepG2 inhibitory concentration (IC50)
  IC50: > 100 µM

## COC(=O)c1nn(c(c1NC(=O)c1c(c(c(c(c1F)F)F)F)F)C)C [Compound 20]
physchem; [7]
  solubility kinetic: 229 µM
physchem; pH 7.4, read-out: Kinetic Solubility pH7.4
  solubility kinetic: 229 µM
[2]
  Mouse micro Cl: 1.4 mLmin/g
  Microsomal Cli: 1.4 mL/min/g
M. tuberculosis (H37Rv); read-out: H37Rv MIC A
  MIC: >50 µM
M. tuberculosis (H37Rv); read-out: H37Rv MIC B
  MIC: >50 µM
M. tuberculosis (H37Rv); read-out: Wk2_7H9/DPPC/ casitone/ Tyloxapol MIC
  MIC: >50 µM
M. tuberculosis (H37Rv); read-out: Wk2_ 7H9/DPPC/ cholesterol/BSA/ Tyloxapol MIC
  MIC: >50 µM
M. tuberculosis (H37Rv); read-out: Wk2_7H9/glucose/ BSA/Tyloxapol MIC
  MIC: >50 µM
M. tuberculosis (H37Rv); read-out: Wk2_7H9/glucose/ casitone/ Tyloxapol MIC
  MIC: >50 µM
[4]
  Mouse Heps Cl: 15.2 mLmin/g
  Hepatocyte Cli: 15 mL/min/g
[6]
  CHI LogD: 2.0
HepG2 cells; read-out: HepG2 inhibitory concentration (IC50), growth of HepG2 cells
  IC50: > 100 µM
